The source of these data is ChEMBL document CHEMBL3091348, “Discovery of an intravenous hepatoselective glucokinase activator for the treatment of inpatient hyperglycemia” (Bioorg Med Chem Lett, 2013).

Data set [1] in a line: Lipophilicity, log D of the compound at pH 7.4. The class given is physicochemical. The settings on record: buffer.
For data set [2], the target named is T1, Hexokinase-4 (Homo sapiens, UniProt P35557).
T1 sequence (P35557 whole entry): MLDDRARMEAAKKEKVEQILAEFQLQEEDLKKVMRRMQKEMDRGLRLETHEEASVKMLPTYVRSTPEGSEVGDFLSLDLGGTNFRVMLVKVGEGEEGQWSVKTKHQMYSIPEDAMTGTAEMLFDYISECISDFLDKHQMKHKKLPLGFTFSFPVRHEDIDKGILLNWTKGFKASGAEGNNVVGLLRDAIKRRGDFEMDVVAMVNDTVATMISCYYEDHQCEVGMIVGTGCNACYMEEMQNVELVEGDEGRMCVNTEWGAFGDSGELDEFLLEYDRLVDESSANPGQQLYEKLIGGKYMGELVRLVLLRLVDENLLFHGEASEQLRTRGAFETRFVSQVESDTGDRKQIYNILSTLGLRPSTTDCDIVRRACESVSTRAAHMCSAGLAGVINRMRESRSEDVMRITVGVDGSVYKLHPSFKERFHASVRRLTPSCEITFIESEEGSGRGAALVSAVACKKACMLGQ
The data set can be described thus: Activation of recombinant human glucokinase by G6PDH/NADP coupled assay.

Data set [3] is described as follows: Apparent permeability across RRCK cells. The class given is ADME, cell-based, Canis lupus familiaris, MDCKII-LE. The conditions noted are these: dog, MDCK.
Data set [4] deals with T2, Hexokinase-4 (Homo sapiens) (UniProt P35557).
T2 sequence (whole entry): T1 sequence (P35557 whole entry)
The data set can be described thus: Activation of recombinant human glucokinase assessed as decrease in enzyme Km for glucose by G6PDH/NADP coupled assay relative to control.

Data set [5] has as its target T2, Hexokinase-4 (Homo sapiens). The data set is described as follows: Activation of recombinant human glucokinase assessed as increase in enzyme Vmax for glucose by G6PDH/NADP coupled assay relative to control.
In data set [6] the target is T3, Hexokinase-4 (Rattus norvegicus, UniProt P17712).
T3 sequence (P17712 whole entry): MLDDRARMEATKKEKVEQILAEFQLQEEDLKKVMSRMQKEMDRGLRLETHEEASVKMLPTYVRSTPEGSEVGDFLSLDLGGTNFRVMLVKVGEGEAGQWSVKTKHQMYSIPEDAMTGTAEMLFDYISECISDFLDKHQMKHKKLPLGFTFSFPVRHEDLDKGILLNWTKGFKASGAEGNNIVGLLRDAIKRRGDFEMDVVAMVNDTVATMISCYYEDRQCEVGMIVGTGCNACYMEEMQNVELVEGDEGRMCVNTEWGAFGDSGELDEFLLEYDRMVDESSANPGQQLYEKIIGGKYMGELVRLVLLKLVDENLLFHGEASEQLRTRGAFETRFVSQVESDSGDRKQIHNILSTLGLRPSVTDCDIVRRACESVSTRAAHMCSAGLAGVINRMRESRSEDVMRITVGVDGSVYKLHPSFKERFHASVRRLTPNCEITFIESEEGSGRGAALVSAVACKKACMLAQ
The data set can be described thus: Activation of glucokinase in rat INS-1 cells assessed as glucose-stimulated insulin secretion. The class given is cell-based, INS1.

Structures are written as SMILES.

Usually logD stands for the decadic logarithm of the distribution of all forms, ionised or not, between an organic phase and buffer at a given pH. High values mean higher lipophilicity, low ones lower lipophilicity. One may read the EC50 as the concentration at which the effect is half-maximal. The term Papp denotes a coefficient for how fast a substance crosses the barrier. Take `O=C(O)c1ccc(NC(=O)[C@H](CC2CCOCC2)n2cnc(S(=O)(=O)C3CC3)c2)nc1`: in data set [1], the logD was -1.85. Further, the EC50 on Hexokinase-4 [2] is 1.35 µM. Also, the Papp in data set [3] worked out at 9 nm/s. Besides, the fold change (FC) in data set [4] was found to be 0.11; in data set [5], 1.21.
Take `O=C(O)c1ccc(NC(=O)[C@H](CC2CCCC2)n2cnc(S(=O)(=O)C3CCC3)c2)nc1`: the fold change (FC) in data set [4] worked out at 0.06; in data set [5], 1.35.
`O=C(O)c1ccc(NC(=O)[C@H](CC2CCCCC2)n2cnc(S(=O)(=O)C3CC3)c2)nc1` registered a logD in data set [1] of -0.25. Further, at Hexokinase-4 [2], the EC50 is 0.113 µM. Besides, the Papp in data set [3] was 5 nm/s. Moreover, the results for the fold change (FC) in data set [4] and in data set [5] were 0.08 and 1.5, respectively.
`O=C(O)c1ccc(NC(=O)[C@H](CC2CCCC2)n2cnc(S(=O)(=O)C3CC3)c2)nc1` came in with a logD in data set [1] of -0.2. The EC50 at Hexokinase-4 [6] is 26 µM; on Hexokinase-4 [2], 0.137 µM. Also, the Papp in data set [3] is 6 nm/s. Further, the fold change (FC) in data set [4] was determined as 0.05; in data set [5], 1.68.
The compound `O=C(O)c1ccc(NC(=O)[C@H](CC2CCOCC2)n2cnc(S(=O)(=O)C3CCC3)c2)nc1` displayed a logD in data set [1] of -1.55. On Hexokinase-4 [2], the 50% effective concentration (EC50) is more than 10 µM. Also, in data set [3], the Papp was 9 nm/s.
